Source: article PMC6925310 (SLAS discovery : advancing life sciences R & D, 2019)
“And” between values parts separate entries of the source, which are not always exact repeats. Equal entries are not always repeated. “Also recorded” adds a separate entry of the source. Where two headings read alike, the source gives them in different places.

Tests used:
[1] = tested on: gram-positive bacterial cultures; settings: cited from earlier work
P. aeruginosa LysRS [2] = target: T1, P. aeruginosa LysRS (Pseudomonas aeruginosa, UniProt Q9HXU0); test: Binding mode; format: biochemical; settings: for mechanism of inhibition with respect to ATP: IC50 at ATP 25 to 1000 μM, amino acid constant; for mechanism of inhibition with respect to ATP / mechanism of inhibition with respect to lysine: LysRS 0.01 μM; for mechanism of inhibition with respect to lysine: IC50 at lysine 25 to 300 μM, ATP 2.5 mM
T1 sequence (Q9HXU0 1-501): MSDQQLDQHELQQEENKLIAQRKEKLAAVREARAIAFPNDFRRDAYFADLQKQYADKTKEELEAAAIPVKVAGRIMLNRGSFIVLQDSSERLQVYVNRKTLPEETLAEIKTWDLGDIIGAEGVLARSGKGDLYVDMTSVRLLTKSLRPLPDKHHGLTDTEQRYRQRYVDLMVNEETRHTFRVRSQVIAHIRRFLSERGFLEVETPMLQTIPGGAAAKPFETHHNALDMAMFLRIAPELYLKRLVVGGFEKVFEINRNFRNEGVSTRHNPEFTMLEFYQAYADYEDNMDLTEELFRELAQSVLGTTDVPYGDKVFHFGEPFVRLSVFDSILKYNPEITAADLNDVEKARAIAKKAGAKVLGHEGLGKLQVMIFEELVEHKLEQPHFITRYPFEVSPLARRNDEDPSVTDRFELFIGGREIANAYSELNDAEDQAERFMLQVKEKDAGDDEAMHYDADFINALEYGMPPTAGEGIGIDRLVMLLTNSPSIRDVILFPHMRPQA

M. catarrhalis = test: Time-kill kinetic assay; format: cell-based, Moraxella catarrhalis; settings: 4×MIC, 0 to 24 h
P. aeruginosa LysRS [3] = target: T1, P. aeruginosa LysRS; test: SPA-based tRNA aminoacylation assay; format: biochemical
[4] = tested on: human embryonic kidney 293 cells (HEK-293)
[5] = tested on: human embryonic kidney 293 cells (HEK-293); test: MTT cytotoxicity assay; settings: HEK-293, MTT, 25 to 400 μg/mL, 24 h
eukaryotic LysRS = settings: cited from earlier work
P. aeruginosa LysRS [6] = target: T1, P. aeruginosa LysRS; test: ATP:PPi exchange reaction, substrate kinetics; settings: substrate varied, other substrate held at 2 mM; LysRS 0.1 μM

SMILES: C=CC1=C(C)/C(=C/c2[nH]c(Cc3[nH]c(/C=C4\NC(=O)C(C)=C4C=C)c(C)c3CCC(=O)O)c(CCC(=O)O)c2C)NC1=O [BM01D09, bilirubin]
- inhibition of growth of gram-positive bacterial cultures [1]: inhibitory
- Ki (P. aeruginosa LysRS [2]): 3.5 µM
- mechanism of inhibition with respect to ATP (P. aeruginosa LysRS [2]): competing with ATP; also recorded: IC50 also increased; also recorded: competitive inhibition
- mechanism of inhibition with respect to ATP (P. aeruginosa LysRS [2]; listed as bilirubin): competitive with ATP
- mechanism of inhibition with respect to lysine (P. aeruginosa LysRS [2]): no change in the IC50
- mechanism of inhibition with respect to lysine (P. aeruginosa LysRS [2]; listed as bilirubin): noncompetitive with lysine
- global mode of inhibition (time-kill) (M. catarrhalis): bacteriostatic
- IC50 (P. aeruginosa LysRS [3]): 17 µM
- CC50 relative to MICs against susceptible bacteria [4]: 6-20 fold

SMILES: S=C(N/N=C1\CCCc2c1[nH]c1ccc(C3CCCCC3)cc21)Nc1ccccc1 [BT06F11, 1-[(~›E‹)-(6-cyclohexyl-2,3,4,9-tetrahydrocarbazol-1-ylidene)amino]-3-phenylthiourea]
- mechanism of inhibition with respect to ATP (P. aeruginosa LysRS [2]): mechanism other than substrate competition; also recorded: noncompetitive; also recorded: not observed to be competitive
- mechanism of inhibition with respect to lysine (P. aeruginosa LysRS [2]): mechanism other than substrate competition; also recorded: noncompetitive; also recorded: not observed to be competitive
- toxicity to human cell growth (in words) [5]: not toxic at any concentration tested; also recorded: not observed to be toxic
- global mode of inhibition (time-kill) (M. catarrhalis): bactericidal; also recorded: inhibited growth by killing the bacteria

SMILES: O=C(CCCCCCCCC(=O)N/N=C/c1ccc([N+](=O)[O-])o1)N/N=C/c1ccc([N+](=O)[O-])o1 [BT08F04, ~›N‹,~›N‹′-bis[(~›E‹)-(5-nitrofuran-2-yl)methylideneamino]decanediamide]
- mechanism of inhibition with respect to ATP (P. aeruginosa LysRS [2]): competitive with ATP; also recorded: competitive inhibition
- mechanism of inhibition with respect to lysine (P. aeruginosa LysRS [2]): uncompetitive with the amino acid
- Ki (P. aeruginosa LysRS [2]; read-out: mean Ki, calculated from IC50 values determined at 75 μM lysine and 2.5 mM ATP, multiple determinations): 3.4 µM
- global mode of inhibition (time-kill) (M. catarrhalis): bactericidal; also recorded: inhibited growth by killing the bacteria

SMILES: C[C@H]1CCC[C@H](C[C@H]2Cc3cc(O)cc(O)c3C(=O)O2)O1 [cladosporin]
- inhibition of eukaryotic LysRS (in words) (eukaryotic LysRS): potent ATP competitive inhibitor

SMILES: NCCCC[C@H](N)C(=O)O [lysine]
- kcat^obs (P. aeruginosa LysRS [6]): 13 s⁻¹ and 13.3 s⁻¹
